The target in the experiment is T1, TRPV4 (Homo sapiens, UniProt Q9HBA0).
T1 construct: HaloTag fused to the N-terminus of human TRPV4, expressed in TRPV4-KO HEK293 cells
The experiment is described as follows: FLIPR calcium mobilization assay in transfected TRPV4-KO HEK293 cells (agonist dose-response). It counts as cell-based.

T1 sequence (Q9HBA0 whole entry, the tested form may be a part): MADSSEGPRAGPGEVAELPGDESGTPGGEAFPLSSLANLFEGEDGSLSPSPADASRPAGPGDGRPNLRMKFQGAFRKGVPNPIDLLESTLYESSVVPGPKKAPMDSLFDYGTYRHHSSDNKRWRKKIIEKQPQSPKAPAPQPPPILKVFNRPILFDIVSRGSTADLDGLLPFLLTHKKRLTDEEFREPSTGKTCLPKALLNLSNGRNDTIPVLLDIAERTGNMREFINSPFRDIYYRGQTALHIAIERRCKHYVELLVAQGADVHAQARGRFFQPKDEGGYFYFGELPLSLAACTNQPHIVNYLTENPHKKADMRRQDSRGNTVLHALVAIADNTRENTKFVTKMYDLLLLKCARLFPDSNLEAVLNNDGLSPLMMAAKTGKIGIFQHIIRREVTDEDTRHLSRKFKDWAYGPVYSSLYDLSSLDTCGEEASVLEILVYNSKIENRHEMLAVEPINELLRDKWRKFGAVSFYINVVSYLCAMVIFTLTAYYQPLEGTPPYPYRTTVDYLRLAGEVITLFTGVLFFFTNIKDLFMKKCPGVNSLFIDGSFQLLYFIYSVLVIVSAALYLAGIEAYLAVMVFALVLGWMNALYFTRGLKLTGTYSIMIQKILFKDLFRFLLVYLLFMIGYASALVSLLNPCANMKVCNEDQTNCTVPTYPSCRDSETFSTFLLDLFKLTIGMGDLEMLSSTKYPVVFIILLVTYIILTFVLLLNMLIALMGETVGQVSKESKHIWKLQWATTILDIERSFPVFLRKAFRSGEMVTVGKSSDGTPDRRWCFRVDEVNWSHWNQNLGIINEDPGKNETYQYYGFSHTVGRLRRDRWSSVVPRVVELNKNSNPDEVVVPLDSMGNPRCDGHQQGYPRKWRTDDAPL

As to `CC(C)C[C@H](NC(=O)c1cc2ccccc2s1)C(=O)N1CCN(C(=O)[C@H](CO)NS(=O)(=O)c2ccc(Cl)cc2Cl)CC1` [GSK1016790A, N-((1S)-1-{[4-((2S)-2-{[(2,4-dichlorophenyl)sulfonyl]amino}-3-hydroxypropanoyl)-1-piperazinyl]carbonyl}-3-methylbutyl)-1-benzothiophene-2-carboxamide], the EC50 is 26 nM.

Values taken from article PMC8395219, “Comparative Analysis of Single-Molecule Dynamics of TRPV1 and TRPV4 Channels in Living Cells” (International Journal of Molecular Sciences, 2021).
